In patent US9199979B2, “Thiazolylphenyl-benzenesulfonamido derivatives as kinase inhibitors” (NERVIANO MEDICAL SCIENCES S.R.L., priority 2011, dated 2015):

Experiments:
Type in all cases: cell-based
[1] = system: human melanoma cells A375 (with a mutated B-Raf); test: In vitro cell proliferation assay, A375; settings: A-375, 72 h treatment, cellular ATP readout
Method: (§1) Exponentially growing human melanoma cells A375 (with a mutated B-Raf) and human melanoma cells Mewo (with wild-type B-Raf) were seeded and incubated at 37° C. in a humidified 5% CO2 atmosphere. After 24 h, scalar doses of the compound were added to the medium and cells incubated for 72 h. At the end of treatment, cells were washed and counted. Cell number was determined by a cellular adenosine triphosphate monitoring system. Cell proliferation was compared to control cells and the concentration inhibiting cell growth by 50% was calculated.

[2] = system: human melanoma cells Mewo (with wild-type B-Raf); test: In vitro cell proliferation assay, Mewo; settings: 72 h treatment, cellular ATP readout
Method: as §1

[3] = system: p-MAPK (T202/Y204) in A375 human melanoma cells, having a mutated B-Raf; test: p-MAPK (T202/Y204) ArrayScan assay; settings: A-375, 1.5 or 2 h treatment, p-MAPK staining, read-out: Array Scan A375 IC50
Method: A375 human melanoma cells, having a mutated B-Raf, were seeded in 384-well poly-lysine coated plates (Matrix) at a density of 1000 cells/well with appropriate medium supplemented with 10% FCS and incubated for 16-24 h. Cells were treated for 1.5 or 2 h with increasing doses of compounds (starting dose 10 μM, dilution factor 2.5). At the end of the treatment cells were fixed with p-formaldehyde 3.7% for 15-30 min, then washed twice with D-PBS (80 μL/well) and permeabilized with D-PBS containing 0.1% Triton X-100 and 1% BSA (Sigma-Aldrich) for 15 min at room temperature (staining solution). Anti-phospho-MAPK (T202/Y204) monoclonal antibody E10 (Cell Signaling, cat. #9106) diluted 1:100 was added in staining solution and incubated for 1 h at 37° C. After removal of the primary antibody solution, the anti-mouse Cy™ 2-conjugated (Green) secondary antibody (Amersham) diluted 1:500 in staining solution containing 2 μg/mL DAPI was added. The plate was incubated for 1 h at 37° C., washed twice and then read with Cellomics' ArrayScan VTI (4 fields/well, CytoNucTrans algorithm).
The parameter “MEAN_RingAvgIntenCh2”, which measures the mean cytoplasmatic fluorescence intensity associated to p-MAPK staining, is reported as the final result.

Compound	IC50 [1]	IC50 [2]	IC50 [3]
CNc1cc(-c2sc(C3CCN(C4CC4)CC3)nc2-c2cccc(NS(=O)(=O)c3cc(F)ccc3F)c2F)ccn1 [cmpd. 37, N-(3-{2-(1-cyclopropylpiperidin-4-yl)-5-[2-(methylamino)pyridin-4-yl]-1,3-thiazol-4-yl}-2-fluorophenyl)-2,5-difluorobenzenesulfonamide]	92 nM	> 10000 nM	
CC(=O)Nc1cc(-c2sc(C3CCN(C4CC4)CC3)nc2-c2cccc(NS(=O)(=O)c3cc(F)ccc3F)c2F)ccn1 [cmpd. 30, N-{4-[2-(1-cyclopropylpiperidin-4-yl)-4-(3-{[(2,5-difluorophenyl)sulfonyl]amino}-2-fluorophenyl)-1,3-thiazol-5-yl]pyridin-2-yl}acetamide]	3 nM	> 10000 nM	
O=S(=O)(Nc1cccc(-c2nc(C3CCOCC3)sc2-c2ccncc2)c1F)c1cc(F)ccc1F [cmpd. 20, 2,5-difluoro-N-{2-fluoro-3-[5-(pyridin-4-yl)-2-(tetrahydro-2H-pyran-4-yl)-1,3-thiazol-4-yl]phenyl}benzenesulfonamide]	78 nM	> 10000 nM	2 nM
COC(=O)N[C@@H](C)CNc1cc(-c2sc(C3CCOCC3)nc2-c2cccc(NS(=O)(=O)c3cc(F)ccc3F)c2F)ccn1 [cmpd. 41, Methyl [(2S)-1-({4-[4-(3-{[(2,5-difluorophenyl)sulfonyl]amino}-2-fluorophenyl)-2-(tetrahydro-2H-pyran-4-yl)-1,3-thiazol-5-yl]pyridin-2-yl}amino)propan-2-yl]carbamate]	8 nM	> 10000 nM	
CC(=O)Nc1cc(-c2sc(C3CCN(C)CC3)nc2-c2cccc(NS(=O)(=O)c3cc(F)ccc3F)c2F)ccn1 [cmpd. 23, N-{4-[4-(3-{[(2,5-difluorophenyl)sulfonyl]amino}-2-fluorophenyl)-2-(1-methylpiperidin-4-yl)-1,3-thiazol-5-yl]pyridin-2-yl}acetamide]	6 nM	> 10000 nM	
CNc1cc(-c2sc(C3CCN(C)CC3)nc2-c2cccc(NS(=O)(=O)c3cc(F)ccc3F)c2F)ccn1 [cmpd. 38, 2,5-difluoro-N-(2-fluoro-3-{5-[2-(methylamino)pyridin-4-yl]-2-(1-methylpiperidin-4-yl)-1,3-thiazol-4-yl}phenyl)benzenesulfonamide]	47 nM	> 10000 nM	
CN1CCC(c2nc(-c3cccc(NS(=O)(=O)c4cc(F)ccc4F)c3F)c(-c3ccncc3)s2)CC1 [cmpd. 19, 2,5-difluoro-N-{2-fluoro-3-[2-(1-methylpiperidin-4-yl)-5-(pyridin-4-yl)-1,3-thiazol-4-yl]phenyl}benzenesulfonamide]	40 nM	> 10000 nM	2 nM
O=S(=O)(Nc1cccc(-c2nc(N3CCC(F)(F)CC3)sc2-c2ccncc2)c1F)c1cc(F)ccc1F [cmpd. 18, N-{3-[2-(4,4-difluoropiperidin-1-yl)-5-(pyridin-4-yl)-1,3-thiazol-4-yl]-2-fluorophenyl}-2,5-difluorobenzenesulfonamide]	127 nM	> 10000 nM	2 nM
CNc1cc(-c2sc(C3CCOCC3)nc2-c2cccc(NS(=O)(=O)c3cc(F)ccc3F)c2F)ccn1 [cmpd. 25, 2,5-difluoro-N-(2-fluoro-3-{5-[2-(methylamino)pyridin-4-yl]-2-(tetrahydro-2H-pyran-4-yl)-1,3-thiazol-4-yl}phenyl)benzenesulfonamide]	32 nM	> 10000 nM	
CC(=O)NCCNc1cc(-c2sc(C3CCOCC3)nc2-c2cccc(NS(=O)(=O)c3cc(F)ccc3F)c2F)ccn1 [cmpd. 36, N-[2-({4-[4-(3-{[(2,5-difluorophenyl)sulfonyl]amino}-2-fluorophenyl)-2-(tetrahydro-2H-pyran-4-yl)-1,3-thiazol-5-yl]pyridin-2-yl}amino)ethyl]acetamide]	69 nM	> 10000 nM	
O=S(=O)(Nc1ccc(F)c(-c2nc(N3CCC(F)(F)CC3)sc2-c2ccncc2)c1F)c1cc(F)ccc1F [cmpd. 14, N-{3-[2-(4,4-difluoropiperidin-1-yl)-5-(pyridin-4-yl)-1,3-thiazol-4-yl]-2,4-difluorophenyl}-2,5-difluorobenzenesulfonamide]	66 nM	> 10000 nM	4 nM
CCN(CC)c1nc(-c2c(F)ccc(NS(=O)(=O)c3cc(F)ccc3F)c2F)c(-c2ccncc2)s1 [cmpd. 3, N-{3-[2-(diethylamino)-5-(pyridin-4-yl)-1,3-thiazol-4-yl]-2,4-difluorophenyl}-2,5-difluorobenzenesulfonamide]	166 nM	> 10000 nM	1 nM
CN1CCC(c2nc(-c3cccc(NS(=O)(=O)c4cc(F)ccc4F)c3F)c(-c3ccnc(N)c3)s2)CC1 [cmpd. 39, N-{3-[5-(2-aminopyridin-4-yl)-2-(1-methylpiperidin-4-yl)-1,3-thiazol-4-yl]-2-fluorophenyl}-2,5-difluorobenzenesulfonamide]	27 nM	> 10000 nM	
O=S(=O)(Nc1cccc(-c2nc(C3CCN(C4CC4)CC3)sc2-c2ccncc2)c1F)c1cc(F)ccc1F [cmpd. 21, N-{3-[2-(1-cyclopropylpiperidin-4-yl)-5-(pyridin-4-yl)-1,3-thiazol-4-yl]-2-fluorophenyl}-2,5-difluorobenzenesulfonamide]	23 nM	> 10000 nM	
CC(C)(C)c1nc(-c2cccc(NS(=O)(=O)c3cc(F)ccc3F)c2F)c(-c2ccncc2)s1 [cmpd. 43, N-{3-[2-tert-butyl-5-(pyridin-4-yl)-1,3-thiazol-4-yl]-2-fluorophenyl}-2,5-difluorobenzenesulfonamide]	12 nM	> 10000 nM	
CC(=O)Nc1cc(-c2sc(C3CCNCC3)nc2-c2cccc(NS(=O)(=O)c3cc(F)ccc3F)c2F)ccn1 [cmpd. 44, N-{4-[4-(3-{[(2,5-difluorophenyl)sulfonyl]amino}-2-fluorophenyl)-2-(piperidin-4-yl)-1,3-thiazol-5-yl]pyridin-2-yl}acetamide]	40 nM	> 10000 nM	
Nc1cc(-c2sc(C3CCOCC3)nc2-c2cccc(NS(=O)(=O)c3cc(F)ccc3F)c2F)ccn1 [cmpd. 24, N-{3-[5-(2-aminopyridin-4-yl)-2-(tetrahydro-2H-pyran-4-yl)-1,3-thiazol-4-yl]-2-fluorophenyl}-2,5-difluorobenzenesulfonamide]	15 nM	> 10000 nM	
CC(=O)Nc1cc(-c2sc(C3CCOCC3)nc2-c2cccc(NS(=O)(=O)c3cc(F)ccc3F)c2F)ccn1 [cmpd. 35, N-{4-[4-(3-{[(2,5-difluorophenyl)sulfonyl]amino}-2-fluorophenyl)-2-(tetrahydro-2H-pyran-4-yl)-1,3-thiazol-5-yl]pyridin-2-yl}acetamide]	0.6 nM	> 10000 nM	
Nc1cc(-c2sc(C3CCN(C4CC4)CC3)nc2-c2cccc(NS(=O)(=O)c3cc(F)ccc3F)c2F)ccn1 [cmpd. 22, N-{3-[5-(2-aminopyridin-4-yl)-2-(1-cyclopropylpiperidin-4-yl)-1,3-thiazol-4-yl]-2-fluorophenyl}-2,5-difluorobenzenesulfonamide]	27 nM	> 10000 nM	
CC(=O)Nc1cc(-c2sc(C(C)(C)C)nc2-c2cccc(NS(=O)(=O)c3cc(F)ccc3F)c2F)ccn1 [cmpd. 42, N-{4-[2-tert-butyl-4-(3-{[(2,5-difluorophenyl)sulfonyl]amino}-2-fluorophenyl)-1,3-thiazol-5-yl]pyridin-2-yl}acetamide]	0.6 nM	> 10000 nM	
